Test results: patent US10981858B2, “Dendrimer and formulations thereof” (Priostar Pty Ltd, priority 2015, dated 2021)
Entries after “also recorded” stand apart in the source; their conditions may differ.

What was measured:
Assay type in all cases: physicochemical
[1] = 2,4-D/dendrimer formulation stability study (crystallisation at 0° C.); conditions: for Crystallisation After 7 Days at 0° C. With Seeding: 2,4-D Amine 625 g/l seeded with 2,4-D Amine salt; for Crystallisation After 7 Days at 0° C.: without seeding
Experimental: 20 ml of 2,4-D Amine(2,4-D 625 g/l market sample, Rygel, Adama Australia) was transferred to 25 ml clear vials and dendrimer added (with or without 30% Dithethylene Glycol). Caps were tightened to ensure no moisture entered the vials. Formulations were placed in a freezer at 0° C. […] In a related experiment, formulations were prepared with seeding with 2,4-D Amine salt (Shanghai Biochemical Sci. Ltd., purity 98 in order to hasten rate of crystallisation. The results are provided in Table 2.

[2] = 2,4-D/dendrimer hard water testing (clarity, sedimentation); conditions: 30° C.; for Appearance at Addition / Appearance/Sedimentation After 24 Hrs.: 2,4-D Amine in 342 ppm hard water
Experimental: 342 ppm hard water was prepared as per CIPAC method MT18. The hard water was heated to 30° C. […]

[3] = Solubilization of Methylated seed oil (MSO) in aqueous LA-9 solution; conditions: for Quantity MSO added to 10% LA-9 solution: 50 g, until hazy
Experimental: 10% aqueous solution of Ethoxylated Lauryl alcohol-9 mole (water soluble surfactant) was prepared in Deionized water (5 g in 45 ml). Dendrimer compounds 1 and 4 were prepared 70:30 w/w in Diethylene glycol (DEG). The 10% Ethoxylated Lauryl alcohol-9 M (LA-9) solution was combined with dendrimer DEG solution at 80:20 and 60:40 w/w (total weight of 50 g).
Methylated seed oil (MSO) (STEPOSOL-ROE-W, canola oil methyl ester, Stepan) was added dropwise under stirring to the 10% LA-9 solution (with or without dendimers), until the solution became hazy. Weight of MSO added was recorded.

[4] = Tebuconazole 600 SC formulation viscosity (Table 8); conditions: dendrimer 0.7%
Experimental: (§1) Formulations were prepared by mixing water, surfactant, dispersing agent, wetting agent and antifoam together then gradually adding active. High shear mix for 20-30 minutes to disperse formulation ingredients in water before adding the active and mixing until homogeneous. The mixture was milled on a Dyno bead mill (1 m/s) with 0.4-0.6 mm beads at max. 40° C. until particle size was <4 um. Dendrimer compound (in DEG) was added and stirred for 20 minutes. Thickener and antimicrobial was then added and stirred for 20 minutes. Formulations were deaerated by sonication.

[5] = Tebuconazole 600 SC wetting study in hard water; conditions: one drop Tebuconazole 600 SC, dendrimer 0.7%, in 342 ppm hard water at 30° C.
Experimental: as §1
Wetting studies were conducted by placing one drop of Tebuconazole 600 SC formulation in 342 ppm hard water at 30° C. and recording the time when all the formulation particles were wet and dispersed in water.

[6] = Imidacloprid 700SC formulation viscosity and stability; conditions: Imidacloprid 700 g/L formulation, dendrimer 20 g/L
Experimental: Imidacloprid formulations were prepared by using high shear mixing to disperse formulation ingredients in 75% of the required water before adding the active and mixing until homogeneous. The mixture was milled on a bead mill (4 m/s) at 30-35° C. for 1 complete pass. Thickener, glycerine and residual water were then added under high shear mixing. Formulations were tested for viscosity (using a Brookfield LV viscometer) low temperature stability (0 C for 7 days) and RT stability. Many other dendrimers containing formulations prepared either solidified on milling or pre-milling Compound 4 reduced viscosity and provided greater formulation stability.

[7] = Tebuconazole 600 SC hard water testing: suspensibility, column thinning, sedimentation; conditions: 2 ml Tebuconazole 600 SC, dendrimer 0.7%, in 98 ml 342 ppm hard water, 30° C., 24 hours
Experimental: as §1
98 ml of 342 ppm hard water (prepared as per CIPAC method MT18) was heated to 30° C. before adding 2 ml. of Tebuconazole 600 SC formulation. Temperature was maintained at 30° C. for 24 hours and formulation characteristics were studied for suspension stability, wetting, column thinning/separation and sedimentation.

[8] = Additional tebuconazole formulations: suspension stability and viscosity; conditions: additional tebuconazole formulation, 0.8% additive
Excerpt: Additional formulations were developed, and formulation characteristics were studied for suspension stability, and viscosity.

Cloud point studies = conditions: 1 gm. dendrimer solution (70:30 w/w dendrimer:Diethylene Glycol) in 99 gm. of 10% NaOH solution
Experimental: 1 gm. of dendrimer solution (70:30 w/w dendrimer [Compound 1 or Compound 4]:Diethylene Glycol) was dissolved in 99 gm. of 10% NaOH solution in Deionized water and heated until hazy. Temperature of the solution was measured using calibrated thermometer.

[9] = Dynamic viscosity of aqueous dendrimer solution (Brookfield); conditions: aqueous solution 7% dendrimer and 3% DEG, ambient temperature, spindle no. 63 at 50 rpm
Experimental: 50 g aqueous solution of dendrimer (7% dendrimer and 3% DEG) was prepared in deionized water in a beaker, and subjected to dynamic viscosity measurement using Brookfield viscometer at ambient temperature. Viscosity studies were conducted using spindle no. 63 at 50 rpm. It was observed that viscosity of Compound-1 solution was 1.8 cps and Compound-4 solution was 0.6 cps.

[10] = 2,4-D Amine 625 g/l, dendrimer 2%
[11] = 2,4-D Amine 625 g/l, dendrimer 5%
[12] = 2,4-D Amine 625 g/l, dendrimer 10%

OCCN(CCO)CC(O)COCC(COCC(O)CN(CCO)CCO)(COCC(O)CN(CCO)CCO)COCC(COCC(O)CN(CCO)CCO)(COCC(O)CN(CCO)CCO)COCC(O)CN(CCO)CCO (stereo not shown) [Compound 4, 9,9′-(Oxybis(methylene))bis(9-((3-(bis(2-hydroxyethyl)amino)-2-hydroxypropoxy)methyl)-3,15-bis(2-hydroxyethyl)-7,11-dioxa-3,15-diazaheptadecane-1,5,13,17-tetraol)]
Crystallisation After 7 Days at 0° C. With Seeding ([1]; dendrimer 1.4%, Diethylene Glycol 0.6%): Crystallised
Crystallisation After 7 Days at 0° C. With Seeding ([1]; dendrimer 2%): Crystallised
Crystallisation After 7 Days at 0° C. With Seeding ([1]; dendrimer 3.5%, Diethylene Glycol 1.5%): Crystallised
Crystallisation After 7 Days at 0° C. With Seeding ([1]; dendrimer 5%): Crystallised
Crystallisation After 7 Days at 0° C. With Seeding ([1]; dendrimer 7%, Diethylene Glycol 3%): remained stable; also recorded: No, Clear
Crystallisation After 7 Days at 0° C. With Seeding ([1]; dendrimer 10%): remained stable; also recorded: No, Clear
Crystallisation at 0° C. without seeding ([1]; 2,4-D Amine 625 g/l, all levels of dendrimer tested): did not result in crystallisation
Crystallisation After 14 Days at 0° C. ([1]; 2,4-D Amine 625 g/l, dendrimer 1.4%, Diethylene Glycol 0.6%): Crystallised
Crystallisation After 14 Days at 0° C. [1, 10]: Crystallised
Crystallisation After 14 Days at 0° C. ([1]; 2,4-D Amine 625 g/l, dendrimer 3.5%, Diethylene Glycol 1.5%): No
Crystallisation After 14 Days at 0° C. [1, 11]: Crystallised
Crystallisation After 14 Days at 0° C. ([1]; 2,4-D Amine 625 g/l, dendrimer 7%, Diethylene Glycol 3%): No
Crystallisation After 14 Days at 0° C. [1, 12]: No
Crystallisation After 7 Days at 0° C. [1, 10]: No
Crystallisation After 7 Days at 0° C. [1, 11]: No
Crystallisation After 7 Days at 0° C. [1, 12]: No
Appearance at Addition ([2]; dendrimer 1.4% (w/w), 0.6% DEG): Clear
Appearance/Sedimentation After 24 Hrs. ([2]; dendrimer 1.4% (w/w), 0.6% DEG): Clear
Appearance at Addition ([2]; dendrimer 2% (w/w)): Clear
Appearance/Sedimentation After 24 Hrs. ([2]; dendrimer 2% (w/w)): Clear
Appearance at Addition ([2]; dendrimer 3.5% (w/w), 1.5% DEG): Clear
Appearance/Sedimentation After 24 Hrs. ([2]; dendrimer 3.5% (w/w), 1.5% DEG): Clear
Appearance at Addition ([2]; dendrimer 5% (w/w)): Clear
Appearance/Sedimentation After 24 Hrs. ([2]; dendrimer 5% (w/w)): Clear
Appearance at Addition ([2]; dendrimer 7% (w/w), 3% DEG): Clear
Appearance/Sedimentation After 24 Hrs. ([2]; dendrimer 7% (w/w), 3% DEG): Clear
Appearance at Addition ([2]; dendrimer 10% (w/w)): Clear
Appearance/Sedimentation After 24 Hrs. ([2]; dendrimer 10% (w/w)): Clear
Appearance of 2,4-D solutions in hard water ([2]; all concentrations tested (from 1.4 to 10%), 342 ppm hard water, 24 hours): clear
Increase in solubilisation of Methylated seed oil in aqueous solution [3]: 110%
Quantity MSO added to 10% LA-9 solution ([3]; ratio LA-9 solution:dendrimer/DEG solution 60:40 (w/w), 28% dendrimer (w/w)): 0.81 g
Quantity MSO added to 10% LA-9 solution ([3]; ratio LA-9 solution:dendrimer/DEG solution 80:20 (w/w), 14% dendrimer (w/w)): 0.92 g
Viscosity 0 C. ([4]; 0 C.): 744
Viscosity 54 C. ([4]; 54 C.): 730
Viscosity RT ([4]; RT): 730 cP
Wetting [5]: 9.9 s
Observation: sediment at 0 C. ([6]; 0 C for 7 days): No sediment at 0 C.,
Viscosity (cP) 0 C. ([6]; 0 C., Brookfield LV viscometer): 552 cP
Observation: sediment at RT ([6]; RT): fluffy, low sediment at RT
Viscosity (cP) RT ([6]; RT, Brookfield LV viscometer): 574 cP
Suspensibility: Sediment [7]: <0.5 mL⁻¹
Suspensibility: nature of sediment [7]: Compact
Suspensibility: Column Thinning ([7]; top thinning): No
Observation: sediment at 0 C. ([8]; 0 C.): No sediment at 0 C.,
Viscosity (cP) 0 C. ([8]; 0 C.): 514 cP
Observation: sediment at RT ([8]; RT): fluffy, low sediment
Viscosity (cP) RT ([8]; RT): 672 cP
Cloud point (temperature at which solution turned hazy) (Cloud point studies): greater than 80 °C
Dynamic viscosity [9]: 0.6 cps
